Measurements taken from ChEMBL document CHEMBL1136265, “Dihydropyrimidinones--a new class of anti-staphylococcal antibiotics” (Bioorg Med Chem Lett, 2003).
Values after ≈ are worked out from the molar mass of the structure shown.

Legend:
[1] = In vitro inhibition of eucaryotic translation using […].; assay type: functional
[2] = In vitro selectivity ratio of procaryotic translation to eukaryotic translation; assay type: functional
[3] = test system: Staphylococcus aureus; test: Minimum inhibitory concentration against Staphylococcus aureus in vitro.; assay type: functional
[4] = test system: Escherichia coli; test: In vitro inhibition of procaryotic translation using Escherichia coli S30 Extract system for Circular DNA.; assay type: functional
[5] = test system: J774; test: Cytotoxicity against macrophage cell line (J774); assay type: functional, cell-based; details: Mus musculus
[6] = test system: Mus musculus; test: In vivo inhibitory activity against Staphylococcus aureus 133 after iv dose using murine sepsis model; assay type: functional

IC50 [1] | MIC [3] | IC50 [4] | Structure (SMILES) | Selectivity ratio [2] | EC50 [5] | ED100 [6]
25 µM | 50 µg/mL | 25 µM | CN(C(=O)C[C@@H](N)CCCC#N)C1CN=C(NC(N)=O)NC1=O.Cl (some centres not stated) | 1 |  | 
 | 3.2 µg/mL | 3 µM | CN(C(=O)C[C@@H](N)CC(=O)CCN)C1CN=C(NC(N)=O)NC1=O.Cl.Cl (some centres not stated) |  |  | 
9.4 µM | 6.3 µg/mL | 6 µM | CN(C(=O)C[C@H](N)CCCN)C1CN=C(NC(N)=O)NC1=O.Cl.Cl (some centres not stated) | 1.6 |  | 
2.4 µM | 3.2 µg/mL | 2.4 µM | CN(C(=O)C[C@@H](N)CC[C@H](N)CO)C1CN=C(NC(N)=O)NC1=O.Cl.Cl (some centres not stated) | 1 |  | 
1.6 µM | 0.2 µg/mL | 0.3 µM | CN(C(=O)C[C@@H](N)CCCCN=C(N)N)C1CN=C(NC(N)=O)NC1=O.Cl.Cl (some centres not stated) | 5.3 |  | 
2.8 µM | 0.05 µg/mL |  | CN(C(=O)C[C@@H](N)CCCCN)C1CN=C(NC(N)=O)NC1=O.Cl.Cl (some centres not stated) | 5.3 | 6 µM | 0.25 mg/kg
0.6 µM | 0.4 µg/mL |  | C/C(N)=N/CCC[C@H](N)CC(=O)N(C)C1CN=C(NC(N)=O)NC1=O.Cl.Cl (some centres not stated) | 0.17 |  | 
7.6 µM | 0.8 µg/mL | 4 µM | CCNCCC[C@H](N)CC(=O)N(C)C1CN=C(NC(N)=O)NC1=O.Cl.Cl (some centres not stated) | 1.9 |  | 
1.2 µM | 0.4 µg/mL | 1 µM | CC(N)CCC(N)CC(=O)N(C)C1CN=C(NC(N)=O)NC1=O.Cl.Cl (configuration not stated) | 1.2 |  | 
0.2 µM | 0.4 µg/mL | 0.2 µM | CN(C(=O)C[C@@H](N)CCC/N=C(/N)S)C1CN=C(NC(N)=O)NC1=O.Cl (some centres not stated) | 1 |  | 
0.17 µM | 0.1 µg/mL |  | CN(C(=O)C[C@@H](N)CCCN=C(N)N)C1CN=C(NC(N)=O)NC1=O.Cl.Cl (some centres not stated) | 0.57 | 0.25 µM | 0.25 mg/kg
 | 6.3 µg/mL | 1.5 µM | CN(C(=O)CC(N)CC1CNCCO1)C1CN=C(NC(N)=O)NC1=O.Cl.Cl (configuration not stated) |  |  | 
 | 100 µg/mL (≈ 269 µM) | > 64 µM | COC(=O)NCCC[C@H](N)CC(=O)N(C)C1CN=C(NC(N)=O)NC1=O (some centres not stated) |  |  | 
4.5 µM | 0.8 µg/mL |  | C/N=C(/N)NCCC[C@H](N)CC(=O)N(C)C1CN=C(NC(N)=O)NC1=O.Cl.Cl (some centres not stated) | 9.1 | 5.5 µM | 2 mg/kg
 | 100 µg/mL | > 64 µM | CN(C(=O)CC(N)CCCO)C1CN=C(NC(N)=O)NC1=O.Cl (configuration not stated) |  |  | 
3.2 µM | 0.4 µg/mL | 3 µM | CN(C(=O)C[C@@H](N)CC(O)CCN)C1CN=C(NC(N)=O)NC1=O.Cl.Cl (some centres not stated) |  |  | 
0.26 µM | 50 µg/mL | 0.5 µM | CN(C(=O)CC(N)c1cccc(NC(=N)N)c1)C1CN=C(NC(N)=O)NC1=O.Cl.Cl (configuration not stated) | 0.52 |  | 
3.7 µM | 0.4 µg/mL | 2 µM | CN(C(=O)C[C@@H](N)CCCN)C1CN=C(NC(N)=O)NC1=O.Cl.Cl (some centres not stated) | 1.9 | 25 µM | 0.2 mg/kg
 | 12.5 µg/mL | 64 µM | CN(C(=O)C[C@@H](N)CCC(N)=O)C1CN=C(NC(N)=O)NC1=O.Cl (some centres not stated) |  |  | 
1.2 µM | 25 µg/mL | 1.2 µM | CN(C(=O)C[C@@H](N)CCN=C(N)N)C1CN=C(NC(N)=O)NC1=O.Cl.Cl (some centres not stated) | 1 |  | 
9.4 µM | 12.5 µg/mL | 9.4 µM | Br.Br.CN(C(=O)C[C@@H](N)CCCNC1=NCCN1)C1CN=C(NC(N)=O)NC1=O (some centres not stated) | 1 |  | 
